Biological target: 5-HT2A receptors (Rattus norvegicus, UniProt P14842)
Experiment: in-vitro affinity to 5-HT2A receptors, displacement of [3H]ketanserine (Example A1)
Assay type: binding
Conditions: read-out: HT2A IC50
Source text: The 5-HT2A receptors are exposed both to [^3H]ketanserine (a substance which is known for its affinity to the receptor) and also to the test compound. The decrease in the affinity of [^3H]ketanserine to the receptor is an indication of the affinity of the test substance to the 5-HT2A receptor.

Sequence of 5-HT2A receptors (P14842 whole entry): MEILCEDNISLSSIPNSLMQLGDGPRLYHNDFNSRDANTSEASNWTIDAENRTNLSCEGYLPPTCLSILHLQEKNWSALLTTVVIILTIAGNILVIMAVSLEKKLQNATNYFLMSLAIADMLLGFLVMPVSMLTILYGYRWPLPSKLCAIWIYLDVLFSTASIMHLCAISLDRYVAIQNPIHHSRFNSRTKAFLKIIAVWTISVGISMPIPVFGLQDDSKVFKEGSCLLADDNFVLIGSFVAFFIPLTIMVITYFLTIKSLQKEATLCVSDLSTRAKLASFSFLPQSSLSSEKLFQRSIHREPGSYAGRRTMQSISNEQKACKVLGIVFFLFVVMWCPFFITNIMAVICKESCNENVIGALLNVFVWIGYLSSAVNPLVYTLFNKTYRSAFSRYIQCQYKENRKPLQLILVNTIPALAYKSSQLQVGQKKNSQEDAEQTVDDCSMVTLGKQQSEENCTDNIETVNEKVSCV

Row | Compound | IC50 [nM]
1 | CN1CCN(Cc2cnn(-c3ccc(-c4ccccc4)cc3)c2-c2ccccn2)CC1 [Example 949, 1-(1-Biphenyl-4-yl-5-pyridin-2-yl-1H-pyrazol-4-ylmethyl)-4-methylpiperazine] | 50
2 | CN1CCC(N(C)Cc2cnn(-c3ccc(-c4ccccc4)cc3)c2-c2ccccc2F)C1 (stereo not drawn) [Example 907, [1-Biphenyl-4-yl-5-(2-fluorophenyl)-1H-pyrazol-4-ylmethyl]methyl-(1-methylpyrrolidin-3-yl)amine] | 16
3 | CCN1CCN(Cc2cnn(-c3ccc(-c4ccc(F)cc4)cc3)c2-c2ccccc2Cl)CC1 [Example 975, 1-[5-(2-Chlorophenyl)-1-(4′-fluoro-biphenyl-4-yl)-1H-pyrazol-4-ylmethyl]-4-ethylpiperazine] | 88
4 | CCN1CCN(CCc2cnn(-c3ccc(-c4ccc(F)cc4)cc3)c2-c2ccccc2F)CC1 [Example 928, 1-Ethyl-4-{2-[1-(4′-fluorobiphenyl-4-yl)-5-(2-fluorophenyl)-1H-pyrazol-4-yl]ethyl}piperazine] | 28
5 | Fc1ccc(-c2ccc(-n3ncc(CN4CCN(C5CCCC5)CC4)c3-c3ccccc3Cl)cc2)cc1 [Example 1027, 1-[5-(2-Chlorophenyl)-1-(4′-fluoro-biphenyl-4-yl)-1H-pyrazol-4-ylmethyl]-4-cyclopentylpiperazine] | 260
6 | O=C(c1cnn(-c2ccc(-c3ccccc3)cc2)c1-c1ccccc1F)N1CCOCC1 [Example 1043, 1-[1-Biphenyl-4-yl-5-(2-fluorophenyl)-1H-pyrazol-4-yl]-1-morpholin-4-ylmethanone] | 360
7 | Fc1ccccc1-c1c(CN2CCN(Cc3ccsc3)CC2)cnn1-c1ccc(-c2ccccc2)cc1 [Example 1047, 1-[1-Biphenyl-4-yl-5-(2-fluorophenyl)-1H-pyrazol-4-ylmethyl]-4-thiophen-3-ylmethyl-piperazine] | 380
8 | c1ccc(-c2ccc(-n3ncc(CN4CCNCC4)c3-c3ccccn3)cc2)cc1 [Example 1009, 1-(1-Biphenyl-4-yl-5-pyridin-2-yl-1H-pyrazol-4-ylmethyl)piperazine] | 200
9 | Nc1ccncc1NCc1cnn(-c2ccc(-c3ccccc3)cc2)c1-c1ccccc1F [Example 1006, N3-[1-Biphenyl-4-yl-5-(2-fluoro-phenyl)-1H-pyrazol-4-ylmethyl]pyridine-3,4-diamine] | 180
10 | OCc1cnn(-c2ccc(-c3ccc(F)cc3)cc2)c1-c1cccc(Cl)c1 [Example 992, [5-(3-Chlorophenyl)-1-(4′-fluoro-biphenyl-4-yl)-1H-pyrazol-4-yl]methanol] | 140
11 | NC(=O)CN1CCN(Cc2cnn(-c3ccc(-c4ccccc4)cc3)c2-c2ccccc2F)CC1 [Example 1042, 2-{4-[1-Biphenyl-4-yl-5-(2-fluoro-phenyl)-1H-pyrazol-4-ylmethyl]piperazin-1-yl}acetamide] | 360
12 | CC(=O)Nc1cccc(-c2ccc(-n3ncc(CN4CCN(C)CC4)c3-c3ccccc3F)cc2)c1 [Example 988, N-{4′-[5-(2-Fluorophenyl)-4-(4-methyl-piperazin-1-ylmethyl)pyrazol-1-yl]biphenyl-3-yl}acetamide] | 130

Same assay, conditions: target not given; description names affinity to 5-HT2A receptors; read-out: IC50

Row | Compound | IC50 [nM]
13 | CN1CCN(Cc2cnn(-c3ccc(-c4ccsc4)cc3)c2-c2ccccc2)CC1 [(98), 1-Methyl-4-[5-phenyl-1-(4-thiophen-3-ylphenyl)-1H-pyrazol-4-ylmethyl]piperazine] | 31
14 | COCCCNCc1cnn(-c2ccc(-c3ccccc3)cc2)c1-c1ccccc1F [(26), [1-Biphenyl-4-yl-5-(2-fluorophenyl)-1H-pyrazol-4-ylmethyl]-(3-methoxypropyl)amine] | 34
15 | CCN(Cc1ccccc1)Cc1cnn(-c2ccc(-c3ccccc3)cc2)c1-c1ccccc1F [(32), Benzyl-[1-biphenyl-4-yl-5-(2-fluorophenyl)-1H-pyrazol-4-ylmethyl]ethylamine] | 320
16 | OC1CCN(Cc2cnn(-c3ccc(-c4ccccc4)cc3)c2-c2ccccc2F)CC1 [(81), 1-[1-Biphenyl-4-yl-5-(2-fluorophenyl)-1H-pyrazol-4-ylmethyl]-piperidin-4-ol] | 430
17 | CCOC(=O)CNC(=O)CNCc1cnn(-c2ccc(-c3ccccc3)cc2)c1-c1ccccc1F [(153), Ethyl (2-{[1-Biphenyl-4-yl-5-(2-fluorophenyl)-1H-pyrazol-4-ylmethyl]amino}ethanoylamino)acetate] | 1100
18 | Fc1ccccc1-c1c(CN2CCNCC2)cnn1-c1ccc(-c2ccccc2)cc1 [(55), 1-[1-Biphenyl-4-yl-5-(2-fluorophenyl)-1H-pyrazol-4-ylmethyl]-piperazine] | 26
19 | CN(CCO)Cc1cnn(-c2ccc(-c3ccccc3)cc2)c1-c1ccccc1F [(92), 2-{[1-Biphenyl-4-yl-5-(2-fluorophenyl)-1H-pyrazol-4-ylmethyl]-methylamino}ethanol] | 16
20 | OC1CCN(Cc2cnn(-c3ccc(-c4ccccc4)cc3)c2-c2ccccc2F)C1 (stereo not drawn) [(53), 1-[1-Biphenyl-4-yl-5-(2-fluorophenyl)-1H-pyrazol-4-ylmethyl]-pyrrolidin-3-ol] | 14
21 | CN(CC(=O)OC(C)(C)C)Cc1cnn(-c2ccc(-c3ccccc3)cc2)c1-c1cccnc1 [(180), tert-Butyl [(1-biphenyl-4-yl-5-pyridin-3-yl-1H-pyrazol-4-ylmethyl)methylamino]acetate] | 920
22 | CN1CCN(Cc2cnn(-c3ccc(-c4ccccc4F)cc3)c2-c2ccc(F)cc2)CC1 [(99), 1-[1-(2′-Fluorobiphenyl-4-yl)-5-(4-fluorophenyl)-1H-pyrazol-4-ylmethyl]-4-methylpiperazine] | 210
23 | Fc1ccccc1-c1c(CN2CCN(Cc3ccncc3)CC2)cnn1-c1ccc(-c2ccccc2)cc1 [(184), 1-[1-Biphenyl-4-yl-5-(2-fluorophenyl)-1H-pyrazol-4-ylmethyl]-4-pyridin-4-ylmethylpiperazine] | 75
24 | CN(C)C(=O)CNCc1cnn(-c2ccc(-c3ccccc3)cc2)c1-c1ccccc1F [(128), 2-{[1-Biphenyl-4-yl-5-(2-fluorophenyl)-1H-pyrazol-4-ylmethyl]-amino}-N,N-dimethylacetamide] | 200
25 | CCC1(O)CCN(Cc2cnn(-c3ccc(-c4ccccc4)cc3)c2-c2ccccc2F)CC1 [(80), 1-[1-Biphenyl-4-yl-5-(2-fluorophenyl)-1H-pyrazol-4-ylmethyl]-4-ethylpiperidin-4-ol] | 280
26 | Nc1ccncc1NCc1cnn(-c2ccc(-c3ccccc3)cc2)c1-c1ccccc1F [(177), N^3-[1-Biphenyl-4-yl-5-(2-fluorophenyl)-1H-pyrazol-4-ylmethyl]-pyridine-3,4-diamine] | 180
27 | Fc1ccccc1-c1c(CN2CCN(Cc3ccsc3)CC2)cnn1-c1ccc(-c2ccccc2)cc1 [(135), 1-[1-Biphenyl-4-yl-5-(2-florophenyl)-1H-pyrazol-4-ylmethyl]-4-thiophen-3-ylmethylpiperazine] | 380
28 | Fc1ccccc1-c1c(CNC2CN3CCC2CC3)cnn1-c1ccc(-c2ccccc2)cc1 (stereo not drawn) [(107), (1-Azabicyclo[2.2.2]oct-3-yl)-[1-biphenyl-4-yl-5-(2-fluorophenyl)-1H-pyrazol-4-ylmethyl]amine] | 140
29 | Fc1ccccc1-c1c(CCl)cnn1-c1ccc(-c2ccccc2)cc1 [(189), 1-Biphenyl-4-yl-4-chloromethyl-5-(2-fluorophenyl)-1H-pyrazole] | 1100
30 | 1-Biphenyl-4-yl-5-(2-fluorophenyl)-4-(2-methoxy-methylpyrrolidin-1-ylmethyl)-1H-pyrazole [(48)] | 510
31 | O=c1ccccn1Cc1cnn(-c2ccc(-c3ccccc3)cc2)c1-c1ccccc1F [(191), 1-[1-Biphenyl-4-yl-5-(2-fluorophenyl)-1H-pyrazol-4-ylmethyl]-1H-pyridin-2-one] | 200
32 | CN(C)C1CCN(Cc2cnn(-c3ccc(-c4ccccc4)cc3)c2-c2ccccc2F)CC1 [(37), {1-[1-Biphenyl-4-yl-5-(2-fluorophenyl)-1H-pyrazol-4-ylmethyl]-piperidin-4-yl}dimethylamine] | 200
33 | Fc1ccccc1-c1c(CNC2CCNCC2)cnn1-c1ccc(-c2ccccc2)cc1 [(74), [1-Biphenyl-4-yl-5-(2-fluorophenyl)-1H-pyrazol-4-ylmethyl]-piperidin-4-ylamine] | 470
34 | CN1CCCN(Cc2cnn(-c3ccc(-c4ccccc4)cc3)c2-c2ccccc2F)CC1 [(93), 1-[1-Biphenyl-4-yl-5-(2-fluorophenyl)-1H-pyrazol-4-ylmethyl]-4-methyl-[1,4]diazepam] | 6.4
35 | OCCNCc1cnn(-c2ccc(-c3ccccc3)cc2)c1-c1ccccc1F [(77), 2-{[1-Biphenyl-4-yl-5-(2-fluorophenyl)-1H-pyrazol-4-ylmethyl]-amino}ethanol] | 5.2
36 | Fc1ccccc1-c1c(CN2CCCC2)cnn1-c1ccc(-c2ccccc2)cc1 [(35), 1-Biphenyl-4-yl-5-(2-fluorophenyl)-4-pyrrolidin-1-ylmethyl-1H-pyrazole] | 32
37 | CC(C)(C)OC(=O)N1CC2C(C1)C2NCc1cnn(-c2ccc(-c3ccccc3)cc2)c1-c1ccccc1F (stereo not drawn) [(190), tert-Butyl 6-{[1-biphenyl-4-yl-5-(2-fluorophenyl)-1H-pyrazol-4-ylmethyl]amino}-3-azabicyclo[3.1.0]hexane-3-carboxylate] | 520

Biological target: T1, 5 HT2C receptor (Homo sapiens, UniProt P28335)
T1 sequence (P28335 33-458): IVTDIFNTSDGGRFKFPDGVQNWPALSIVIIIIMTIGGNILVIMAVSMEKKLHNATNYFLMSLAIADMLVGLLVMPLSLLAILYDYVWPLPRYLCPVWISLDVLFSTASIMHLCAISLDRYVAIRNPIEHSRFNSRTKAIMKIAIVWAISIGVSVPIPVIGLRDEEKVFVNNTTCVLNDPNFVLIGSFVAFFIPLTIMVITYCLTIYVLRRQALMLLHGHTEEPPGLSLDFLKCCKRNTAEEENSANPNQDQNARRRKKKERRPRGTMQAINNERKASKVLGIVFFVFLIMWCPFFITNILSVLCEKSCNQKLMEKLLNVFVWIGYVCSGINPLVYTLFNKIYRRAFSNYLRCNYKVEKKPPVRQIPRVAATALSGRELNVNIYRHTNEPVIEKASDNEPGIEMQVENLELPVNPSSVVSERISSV
Experiment: affinity to the 5 HT2C receptor
Assay type: binding
Conditions: not given

Row | Compound | IC50 [nM]
38 | CN1CCN(Cc2cnn(-c3ccc(-c4ccccc4)cc3)c2-c2ccccn2)CC1 [Example 949, 1-(1-Biphenyl-4-yl-5-pyridin-2-yl-1H-pyrazol-4-ylmethyl)-4-methylpiperazine] | 1000
39 | CN1CCC(N(C)Cc2cnn(-c3ccc(-c4ccccc4)cc3)c2-c2ccccc2F)C1 (stereo not drawn) [Example 907, [1-Biphenyl-4-yl-5-(2-fluorophenyl)-1H-pyrazol-4-ylmethyl]methyl-(1-methylpyrrolidin-3-yl)amine] | 84
40 | CCN1CCN(Cc2cnn(-c3ccc(-c4ccc(F)cc4)cc3)c2-c2ccccc2Cl)CC1 [Example 975, 1-[5-(2-Chlorophenyl)-1-(4′-fluoro-biphenyl-4-yl)-1H-pyrazol-4-ylmethyl]-4-ethylpiperazine] | 1000
41 | CCN1CCN(CCc2cnn(-c3ccc(-c4ccc(F)cc4)cc3)c2-c2ccccc2F)CC1 [Example 928, 1-Ethyl-4-{2-[1-(4′-fluorobiphenyl-4-yl)-5-(2-fluorophenyl)-1H-pyrazol-4-yl]ethyl}piperazine] | 1300
42 | Fc1ccc(-c2ccc(-n3ncc(CN4CCN(C5CCCC5)CC4)c3-c3ccccc3Cl)cc2)cc1 [Example 1027, 1-[5-(2-Chlorophenyl)-1-(4′-fluoro-biphenyl-4-yl)-1H-pyrazol-4-ylmethyl]-4-cyclopentylpiperazine] | 1000

— patent US20060264419A1 (priority 2003, published 2006)
